Measured values taken from the NIST ThermoML archive (doi:10.1021/acs.jced.9b00752).

Assay: mn = molality of the nth substance listed, in mol/kg
Settings: 100 kPa, Liquid, Vibrating tube method

N[C@@H](Cc1c[nH]c2ccccc12)C(=O)O [L-tryptophan] + O
mass density [kg/m3]
Settings | m1 = 0.0035 | m1 = 0.009 | m1 = 0.0179 | m1 = 0.0306 | m1 = 0.0352 | m1 = 0.0429 | m1 = 0.0536 | m1 = 0.0595 | m1 = 0.0659 | m1 = 0.0769
273.65 K | 1000.09 | 1000.46 | 1001.04 | 1001.86 | 1002.16 | 1002.66 | 1003.36 | 1003.74 | 1004.14 | 1004.85
274.15 K | 1000.12 | 1000.48 | 1001.06 | 1001.88 | 1002.18 | 1002.68 | 1003.38 | 1003.75 | 1004.16 | 1004.87
274.65 K | 1000.14 | 1000.5 | 1001.08 | 1001.9 | 1002.2 | 1002.7 | 1003.39 | 1003.77 | 1004.17 | 1004.88
275.15 K | 1000.15 | 1000.52 | 1001.09 | 1001.91 | 1002.22 | 1002.71 | 1003.4 | 1003.78 | 1004.18 | 1004.88
275.65 K | 1000.17 | 1000.53 | 1001.11 | 1001.92 | 1002.23 | 1002.72 | 1003.41 | 1003.79 | 1004.19 | 1004.89
276.15 K | 1000.18 | 1000.54 | 1001.11 | 1001.93 | 1002.23 | 1002.73 | 1003.41 | 1003.79 | 1004.19 | 1004.89
276.65 K | 1000.18 | 1000.54 | 1001.12 | 1001.93 | 1002.23 | 1002.72 | 1003.41 | 1003.78 | 1004.19 | 1004.88
277.15 K | 1000.18 | 1000.55 | 1001.12 | 1001.93 | 1002.23 | 1002.72 | 1003.41 | 1003.78 | 1004.18 | 1004.88
277.65 K | 1000.18 | 1000.54 | 1001.11 | 1001.92 | 1002.22 | 1002.72 | 1003.4 | 1003.77 | 1004.17 | 1004.87
278.15 K | 1000.17 | 1000.53 | 1001.1 | 1001.91 | 1002.21 | 1002.7 | 1003.39 | 1003.76 | 1004.16 | 1004.85
278.65 K | 1000.16 | 1000.52 | 1001.09 | 1001.9 | 1002.2 | 1002.69 | 1003.37 | 1003.74 | 1004.14 | 1004.83
279.15 K | 1000.15 | 1000.51 | 1001.08 | 1001.88 | 1002.18 | 1002.67 | 1003.35 | 1003.72 | 1004.12 | 1004.81
279.65 K | 1000.13 | 1000.49 | 1001.06 | 1001.86 | 1002.16 | 1002.65 | 1003.33 | 1003.7 | 1004.09 | 1004.78
280.15 K | 1000.11 | 1000.47 | 1001.03 | 1001.84 | 1002.13 | 1002.62 | 1003.3 | 1003.67 | 1004.07 | 1004.75
280.65 K | 1000.09 | 1000.44 | 1001.01 | 1001.81 | 1002.11 | 1002.59 | 1003.27 | 1003.64 | 1004.03 | 1004.72
281.15 K | 1000.06 | 1000.41 | 1000.98 | 1001.78 | 1002.07 | 1002.56 | 1003.23 | 1003.6 | 1004 | 1004.68
281.65 K | 1000.02 | 1000.38 | 1000.94 | 1001.74 | 1002.04 | 1002.52 | 1003.2 | 1003.56 | 1003.96 | 1004.64
282.15 K | 999.99 | 1000.34 | 1000.9 | 1001.71 | 1002 | 1002.48 | 1003.15 | 1003.52 | 1003.92 | 1004.6
282.65 K | 999.95 | 1000.3 | 1000.87 | 1001.66 | 1001.96 | 1002.44 | 1003.11 | 1003.48 | 1003.87 | 1004.56
283.15 K | 999.908 | 1000.26 | 1000.82 | 1001.62 | 1001.91 | 1002.39 | 1003.06 | 1003.43 | 1003.82 | 1004.5
